Measured values from patent US10221129B2, “Inhibitors of human immunodeficiency virus replication” (ViiV HEALTHCARE UK (NO.5) LIMITED, priority 2015, dated 2019).

Key:
[1] = system: recombinant NL4-3 virus (nef section replaced with Renilla luciferase gene) in MT-2 cells; experiment: HIV cell culture assay (antiviral activity, luciferase readout); assay type: cell-based
Protocol: HIV cell culture assay—MT-2 cells, 293T cells and the proviral DNA clone of NL4-3 virus were obtained from the NIH AIDS Research and Reference Reagent Program. MT-2 cells were propagated in RPMI 1640 media supplemented with 10% heat inactivated fetal bovine serum (FBS), 100 jag/ml penicillin G and up to 100 units/mL streptomycin. The 293T cells were propagated in DMEM media supplemented with 10% heat inactivated FBS, 100 μg/mL penicillin G and 100 μg/mL streptomycin. A recombinant NL4-3 proviral clone, in which a section of the nef gene was replaced with the Renilla luciferase gene, was used to make the reference virus used in these studies. The recombinant virus was prepared through transfection of the recombinant NL4-3 proviral clone into 293T cells using Transit-293 Transfection Reagent from Mirus Bio LLC (Madison, Wis.). Supernatant was harvested after 2-3 days and the amount of virus present was titered in MT-2 cells using luciferase enzyme activity as a marker by measuring luciferase enzyme activity. Luciferase was quantitated using the EnduRen Live Cell Substrate from Promega (Madison, Wis.). Antiviral activities of compounds toward the recombinant virus were quantified by measuring luciferase activity in MT-2 cells infected for 4-5 days with the recombinant virus in the presence of serial dilutions of the compound.
(Johnson V A, Byington R T. Infectivity Assay. In Techniques in HIV Research. ed. Aldovini A, Walker B D. 71-76. New York: Stockton Press. 1990).

[2] = Compound cytotoxicity, XTT-based colorimetric assay; assay type: cell-based; conditions: human, uninfected MT2 cells, day 4, XTT
Protocol: Compound cytotoxicity and the corresponding CC50 values were determined using the same protocol as described in the antiviral assay except that uninfected cells were used. Cytotoxicity was assessed on day 4 in uninfected MT2 cells by using a XTT (2,3-bis[2-Methoxy-4-nitro-5-sulfophenyl]-2H-tetrazolium-5-carboxyanilide inner salt)-based colorimetric assay (Sigma-Aldrich, St Louis, Mo.).

[3] = Renilla, NL43, MT-2 cells infected for 4-5 days with recombinant NL4-3 Renilla luciferase virus

SMILES	EC50 [1, 3] [nM]	CC50 at 4 days [2] [nM]	EC50 ([1]; MT-2 cells infected for 4-5 days with recombinant NL4-3 Renilla luciferase virus) [nM]
COc1ccc(N(C)C(=O)[C@H](Cc2ccccc2)NC(=O)NS(=O)(=O)N2Cc3ccccc3S2(=O)=O)cc1 [JB-79]	8610	> 100000	
COc1ccc(N(C)C(=O)[C@H](Cc2ccccc2)NC(=O)NS(=O)(=O)Nc2ccc(C(C)(C)C)cc2)cc1 [CA-20]	40	> 100000	
CCN(CC)S(=O)(=O)NC(=O)N[C@@H](Cc1cc(F)cc(F)c1)C(=O)N(C)c1ccc2scnc2c1 [VN-21]	20	> 33300	
COc1ccc(N(C)C(=O)[C@H](Cc2ccccc2)NC(=O)NS(=O)(=O)N2CCc3cc(OC)cc(C)c32)cc1 [CA-56]	1310	> 100000	
CCOc1ccc(N(CC)C(=O)[C@H](Cc2ccccc2)NC(=O)NS(=O)(=O)n2ccc3ccccc32)cc1 [JB-75]	70	> 33300	
CN(C(=O)[C@H](Cc1cc(F)cc(F)c1)NC(=O)NS(=O)(=O)N1CCc2cc(F)ccc21)c1ccc2scnc2c1 [ZY-12]	110	> 100000	
COc1ccc(N(C)C(=O)[C@H](Cc2ccccc2)NC(=O)NS(=O)(=O)Nc2ccc(C)cc2)cc1 [JB-26]	40	> 100000	
CN(C(=O)[C@H](Cc1cc(F)cc(F)c1)NC(=O)NS(=O)(=O)N1CCc2cccnc21)c1ccc2cncnc2c1 [BB-30]	260	> 100000	
COc1ccc(N(C)C(=O)[C@H](Cc2ccccc2)NC(=O)NS(=O)(=O)Nc2ccc(-c3cnco3)cc2)cc1 [CA-38]	250	> 100000	
COc1ccc(N(C)C(=O)[C@H](Cc2ccccc2)NC(=O)NS(=O)(=O)NC(C)c2cnn(C)c2C)cc1 (stereo partly drawn) [JB-60]	270	> 100000	
COc1ccc(N(C)C(=O)[C@H](Cc2ccccc2)NC(=O)NS(=O)(=O)Nc2ccc(Cl)cc2)cc1 [JB-22]	70	> 100000	
CN(C(=O)[C@H](Cc1cc(F)cc(F)c1)NC(=O)NS(=O)(=O)N1CCOc2cccnc21)c1ccc2scnc2c1 [AW-1]	110	> 100000	
COc1ccccc1N(C)S(=O)(=O)NC(=O)N[C@@H](Cc1ccccc1)C(=O)N(C)c1ccc2ncccc2c1 [JB-13]	260	> 33300	
CN(C(=O)[C@H](Cc1cc(F)cc(F)c1)NC(=O)NS(=O)(=O)N1CCCC1c1ccccc1)c1ccc2scnc2c1 (single isomer, unassigned) [VN-3]		52400	850
Cc1ccc2c(n1)N(S(=O)(=O)NC(=O)N[C@@H](Cc1cc(F)cc(F)c1)C(=O)N(C)c1ccc3scnc3c1)CCC2 [VN-12]	10	> 50000	
CN(C(=O)[C@H](Cc1cc(F)cc(F)c1)NC(=O)NS(=O)(=O)N1CCc2cccnc21)c1ccc(OC(F)F)nc1 [GW-13]	60	> 100000	
COCCNS(=O)(=O)NC(=O)N[C@@H](Cc1cc(F)cc(F)c1)C(=O)N(C)c1ccc2scnc2c1 [CA-153]	150	9000	
CCOc1ccc(N(CC)C(=O)[C@H](Cc2ccccc2)NC(=O)NS(=O)(=O)N2CCc3cc(Cl)cc(Cl)c32)cc1 [JB-76]	8750	> 33300	
COc1ccc(N(C)C(=O)[C@H](Cc2ccccc2)NC(=O)NS(=O)(=O)Nc2cc(F)ccc2F)cc1 [JB-48]	170	> 100000	
COc1ccc(N(C)C(=O)[C@H](Cc2ccccc2)NC(=O)NS(=O)(=O)Nc2cccc(Cl)c2)cc1 [JB-19]	50	> 100000	
COc1ccc(N(C)C(=O)[C@H](Cc2ccccc2)NC(=O)NS(=O)(=O)NCc2nccn2C)cc1 [JB-63]	6500	> 100000	

SMILES	EC50 [1, 3] [nM]	CC50 at 4 days [2] [nM]	EC50 ([1]; MT-2 cells infected for 4-5 days with recombinant NL4-3 Renilla luciferase virus) [nM]
COc1ccc(N(C)C(=O)[C@H](Cc2ccccc2)NC(=O)NS(=O)(=O)N(C)C)cc1 [JB-15]	1920	> 100000	
COc1ccc(N(C)C(=O)[C@H](Cc2ccccc2)NC(=O)NS(=O)(=O)N(C)c2cccc(OC)c2)cc1 [JB-34]	80	> 100000	
COc1ccc(N(C)C(=O)[C@H](Cc2cc(F)cc(F)c2)NC(=O)NS(=O)(=O)N2CCC[C@H]2C(=O)N(C)C)cc1 [BB-21]	750	> 100000	
CN(C)C(=O)[C@H]1CCCN1S(=O)(=O)NC(=O)N[C@@H](Cc1cc(F)cc(F)c1)C(=O)N(C)c1ccc2scnc2c1 [BB-26]	310	> 100000	
CN(C(=O)[C@H](Cc1cc(F)cc(F)c1)NC(=O)NS(=O)(=O)N1CCc2cccnc21)c1ccc(OC(F)(F)F)cc1 [GW-7]	30	16800	
COc1ccc(N(C)C(=O)[C@H](Cc2ccccc2)NC(=O)NS(=O)(=O)NCC(=O)N(C)C)cc1 [CA-52]	910	> 100000	
CN(C(=O)[C@H](Cc1cc(F)cc(F)c1)NC(=O)NS(=O)(=O)N1CCC[C@H]1CO)c1ccc2scnc2c1 [CA-131]	210	> 100000	
COc1ccc(N(C)C(=O)[C@H](Cc2ccccc2)NC(=O)NS(=O)(=O)NC(C)c2ncnn2C)cc1 (mixture of isomers) [JB-68]	2370	> 100000	
CN(C(=O)[C@H](Cc1cc(F)cc(F)c1)NC(=O)NS(=O)(=O)N1CCc2cccnc21)c1ccc2c(cnn2C)c1 [GW-8]	100	> 25000	
CC(C)CCNS(=O)(=O)NC(=O)N[C@@H](Cc1cc(F)cc(F)c1)C(=O)N(C)c1ccc2scnc2c1 [CA-145]	120	> 100000	
CN(C(=O)[C@H](Cc1cc(F)cc(F)c1)NC(=O)NS(=O)(=O)N1CCc2cccnc21)c1ccc(Cl)c(C#N)c1 [BB-23]	280	> 100000	
CN(C(=O)[C@H](Cc1ccccc1)NC(=O)NS(=O)(=O)N(C)c1ccccc1Cl)c1ccc2ncccc2c1 [JB-11]	40	> 100000	
COc1ccc(N(C)C(=O)[C@H](Cc2ccccc2)NC(=O)NS(=O)(=O)NCc2ccccc2F)cc1 [JB-38]	1600	> 100000	
CN(C(=O)[C@H](Cc1cc(F)cc(F)c1)NC(=O)NS(=O)(=O)N1CCc2cccnc21)c1cnc2scnc2c1 [GW-16]	280	> 100000	
CC(C)N(C)S(=O)(=O)NC(=O)N[C@@H](Cc1cc(F)cc(F)c1)C(=O)N(C)c1ccc2scnc2c1 [CA-147]	80	> 100000	
COc1ccc(N(C)C(=O)[C@H](Cc2ccccc2)NC(=O)NS(=O)(=O)n2c(C)cc3ccncc32)cc1 [CA-62]	3690	> 100000	
COc1ccc(N(C)C(=O)[C@H](Cc2ccccc2)NC(=O)NS(=O)(=O)Nc2cc(F)cc(F)c2)cc1 [JB-46]	80	> 100000	
CN(C(=O)[C@H](Cc1cc(F)cc(F)c1)NC(=O)NS(=O)(=O)NCCO)c1ccc2scnc2c1 [CA-138]	270	> 100000	
CCOc1ccc(N(CC)C(=O)[C@H](Cc2ccccc2)NC(=O)NS(=O)(=O)N2CCc3c(Cl)cccc32)cc1 [JB-72]	180	> 33300	
CN(C(=O)[C@H](Cc1cc(F)cc(F)c1)NC(=O)NS(=O)(=O)N1CCc2cccnc21)c1ccc2sc(=O)n(C)c2c1 [GW-19]	60	> 100000	
COc1ccc(N(C)C(=O)[C@H](Cc2ccccc2)NC(=O)NS(=O)(=O)N(C)c2ccccc2)cc1 [JB-3]	130	> 100000	
